Reference: ChEMBL document CHEMBL4507257, “Data for DCP probe ABT-100” (2021)

What was measured:
[1] = test system: Tyrosine-protein kinase ABL1 (Homo sapiens), P00519 [H396P]; conditions: Compound concentration 1000.0 nM
[2] = target: Tyrosine-protein kinase ABL1 (Homo sapiens) (UniProt P00519); conditions: Compound concentration 1000.0 nM
[3] = target: Activin receptor type-1B (Homo sapiens) (UniProt P36896); conditions: Compound concentration 1000.0 nM
[4] = test system: ALK tyrosine kinase receptor (Homo sapiens), Q9UM73 [L1196M]; conditions: Compound concentration 1000.0 nM
[5] = target: NUAK family SNF1-like kinase 1 (Homo sapiens) (UniProt O60285); conditions: Compound concentration 1000.0 nM
[6] = target: Calcium/calmodulin-dependent protein kinase type 1G (Homo sapiens) (UniProt Q96NX5); conditions: Compound concentration 1000.0 nM
[7] = target: Calcium/calmodulin-dependent protein kinase type IV (Homo sapiens) (UniProt Q16566); conditions: Compound concentration 1000.0 nM
[8] = target: Cyclin-dependent kinase 11A (Homo sapiens) (UniProt Q9UQ88); conditions: Compound concentration 1000.0 nM
[9] = target: Cyclin-dependent kinase-like 5 (Homo sapiens) (UniProt O76039); conditions: Compound concentration 1000.0 nM
[10] = target: Tyrosine-protein kinase CSK (Homo sapiens) (UniProt P41240); conditions: Compound concentration 1000.0 nM
Sequence of Tyrosine-protein kinase CSK (Homo sapiens) (P41240 2-450 limits assumed): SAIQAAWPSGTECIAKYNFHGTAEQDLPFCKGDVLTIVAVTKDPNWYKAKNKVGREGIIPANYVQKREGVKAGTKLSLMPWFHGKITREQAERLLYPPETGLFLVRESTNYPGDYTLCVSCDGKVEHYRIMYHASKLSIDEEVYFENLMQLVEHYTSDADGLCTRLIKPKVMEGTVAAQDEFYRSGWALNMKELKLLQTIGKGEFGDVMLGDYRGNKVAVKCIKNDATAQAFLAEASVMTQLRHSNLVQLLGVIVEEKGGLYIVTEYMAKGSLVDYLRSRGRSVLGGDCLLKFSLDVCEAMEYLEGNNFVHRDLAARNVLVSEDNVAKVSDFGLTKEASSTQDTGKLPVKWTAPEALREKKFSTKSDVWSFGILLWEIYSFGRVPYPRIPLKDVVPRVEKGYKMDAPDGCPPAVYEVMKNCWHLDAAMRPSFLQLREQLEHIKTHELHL

[11] = target: Mitogen-activated protein kinase 7 (Homo sapiens) (UniProt Q13164); conditions: Compound concentration 1000.0 nM
[12] = target: Inhibitor of nuclear factor kappa-B kinase subunit beta (Homo sapiens) (UniProt O14920); conditions: Compound concentration 1000.0 nM
[13] = target: Mast/stem cell growth factor receptor Kit (Homo sapiens) (UniProt P10721); conditions: Compound concentration 1000.0 nM
[14] = target: Serine/threonine-protein kinase STK11 (Homo sapiens) (UniProt Q15831); conditions: Compound concentration 1000.0 nM
[15] = target: Serine/threonine-protein kinase MAK (Homo sapiens) (UniProt P20794); conditions: Compound concentration 1000.0 nM
[16] = target: Mitogen-activated protein kinase kinase kinase 4 (Homo sapiens) (UniProt Q9Y6R4); conditions: Compound concentration 1000.0 nM
[17] = target: MAP kinase-interacting serine/threonine-protein kinase 2 (Homo sapiens) (UniProt Q9HBH9); conditions: Compound concentration 1000.0 nM
[18] = target: Serine/threonine-protein kinase 24 (Homo sapiens) (UniProt Q9Y6E0); conditions: Compound concentration 1000.0 nM
[19] = target: Serine/threonine-protein kinase Nek10 (Homo sapiens) (UniProt Q6ZWH5); conditions: Compound concentration 1000.0 nM
[20] = target: Serine/threonine-protein kinase Nek3 (Homo sapiens) (UniProt P51956); conditions: Compound concentration 1000.0 nM
[21] = target: Serine/threonine-protein kinase NIM1 (Homo sapiens) (UniProt Q8IY84); conditions: Compound concentration 1000.0 nM
[22] = target: Serine/threonine-protein kinase PAK 1 (Homo sapiens) (UniProt Q13153); conditions: Compound concentration 1000.0 nM
[23] = target: Serine/threonine-protein kinase PAK 6 (Homo sapiens) (UniProt Q9NQU5); conditions: Compound concentration 1000.0 nM
Sequence of Serine/threonine-protein kinase PAK 6 (Homo sapiens) (Q9NQU5 whole entry, looked up, canonical isoform): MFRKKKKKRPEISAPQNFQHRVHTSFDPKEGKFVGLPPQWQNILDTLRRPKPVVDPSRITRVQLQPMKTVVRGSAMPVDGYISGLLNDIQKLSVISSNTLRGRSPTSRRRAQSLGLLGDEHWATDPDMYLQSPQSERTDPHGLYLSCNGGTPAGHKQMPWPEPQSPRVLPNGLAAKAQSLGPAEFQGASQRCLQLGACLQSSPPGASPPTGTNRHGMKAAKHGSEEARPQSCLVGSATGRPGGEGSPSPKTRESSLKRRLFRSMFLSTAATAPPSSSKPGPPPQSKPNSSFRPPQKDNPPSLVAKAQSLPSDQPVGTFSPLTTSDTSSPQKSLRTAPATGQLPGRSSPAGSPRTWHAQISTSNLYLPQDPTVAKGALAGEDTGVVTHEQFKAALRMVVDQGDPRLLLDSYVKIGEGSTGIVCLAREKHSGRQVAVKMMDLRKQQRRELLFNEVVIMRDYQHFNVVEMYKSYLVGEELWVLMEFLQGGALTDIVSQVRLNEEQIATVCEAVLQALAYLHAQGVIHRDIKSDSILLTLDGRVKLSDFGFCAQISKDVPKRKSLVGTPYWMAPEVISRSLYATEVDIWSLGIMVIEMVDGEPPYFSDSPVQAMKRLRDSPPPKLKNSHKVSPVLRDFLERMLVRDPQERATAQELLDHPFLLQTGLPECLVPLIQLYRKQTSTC

[24] = target: Phosphorylase b kinase gamma catalytic chain, skeletal muscle/heart isoform (Homo sapiens) (UniProt Q16816); conditions: Compound concentration 1000.0 nM
[25] = test system: Phosphatidylinositol 4,5-bisphosphate 3-kinase catalytic subunit alpha isoform (Homo sapiens), P42336 [H1047Y]; conditions: Compound concentration 1000.0 nM
Sequence of Phosphatidylinositol 4,5-bisphosphate 3-kinase catalytic subunit alpha isoform (Homo sapiens), P42336 [H1047Y] (P42336 whole entry H1047Y, canonical isoform): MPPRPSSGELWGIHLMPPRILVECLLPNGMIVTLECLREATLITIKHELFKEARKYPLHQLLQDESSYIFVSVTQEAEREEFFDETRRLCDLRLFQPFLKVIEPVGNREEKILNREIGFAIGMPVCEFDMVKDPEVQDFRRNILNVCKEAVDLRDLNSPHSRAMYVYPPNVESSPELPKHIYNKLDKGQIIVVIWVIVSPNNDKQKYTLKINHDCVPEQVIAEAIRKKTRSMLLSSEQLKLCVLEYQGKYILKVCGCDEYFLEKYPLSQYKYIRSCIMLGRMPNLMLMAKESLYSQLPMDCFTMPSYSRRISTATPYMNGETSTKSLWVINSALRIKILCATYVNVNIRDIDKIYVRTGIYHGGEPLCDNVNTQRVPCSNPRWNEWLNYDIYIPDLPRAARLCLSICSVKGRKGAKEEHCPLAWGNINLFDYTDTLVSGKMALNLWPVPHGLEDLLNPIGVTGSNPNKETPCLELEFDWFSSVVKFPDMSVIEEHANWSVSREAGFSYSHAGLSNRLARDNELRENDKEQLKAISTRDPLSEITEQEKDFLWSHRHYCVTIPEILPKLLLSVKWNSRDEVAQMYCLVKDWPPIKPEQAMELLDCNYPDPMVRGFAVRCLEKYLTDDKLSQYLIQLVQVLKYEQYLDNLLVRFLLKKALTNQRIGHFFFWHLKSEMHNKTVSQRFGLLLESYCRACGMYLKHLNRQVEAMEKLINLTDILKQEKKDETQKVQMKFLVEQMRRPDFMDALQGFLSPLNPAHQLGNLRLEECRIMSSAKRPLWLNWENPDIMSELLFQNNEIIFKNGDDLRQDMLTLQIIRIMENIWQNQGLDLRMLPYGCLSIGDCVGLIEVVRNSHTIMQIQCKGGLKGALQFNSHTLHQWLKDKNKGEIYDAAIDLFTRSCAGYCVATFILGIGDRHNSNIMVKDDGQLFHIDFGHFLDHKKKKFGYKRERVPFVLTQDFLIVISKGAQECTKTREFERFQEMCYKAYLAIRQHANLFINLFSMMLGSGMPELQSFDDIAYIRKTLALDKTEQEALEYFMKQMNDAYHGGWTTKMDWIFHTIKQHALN

[26] = target: Protein kinase C iota type (Homo sapiens) (UniProt P41743); conditions: Compound concentration 1000.0 nM
[27] = target: Protein kinase C theta type (Homo sapiens) (UniProt Q04759); conditions: Compound concentration 1000.0 nM
Sequence of Protein kinase C theta type (Homo sapiens) (Q04759 whole entry, looked up): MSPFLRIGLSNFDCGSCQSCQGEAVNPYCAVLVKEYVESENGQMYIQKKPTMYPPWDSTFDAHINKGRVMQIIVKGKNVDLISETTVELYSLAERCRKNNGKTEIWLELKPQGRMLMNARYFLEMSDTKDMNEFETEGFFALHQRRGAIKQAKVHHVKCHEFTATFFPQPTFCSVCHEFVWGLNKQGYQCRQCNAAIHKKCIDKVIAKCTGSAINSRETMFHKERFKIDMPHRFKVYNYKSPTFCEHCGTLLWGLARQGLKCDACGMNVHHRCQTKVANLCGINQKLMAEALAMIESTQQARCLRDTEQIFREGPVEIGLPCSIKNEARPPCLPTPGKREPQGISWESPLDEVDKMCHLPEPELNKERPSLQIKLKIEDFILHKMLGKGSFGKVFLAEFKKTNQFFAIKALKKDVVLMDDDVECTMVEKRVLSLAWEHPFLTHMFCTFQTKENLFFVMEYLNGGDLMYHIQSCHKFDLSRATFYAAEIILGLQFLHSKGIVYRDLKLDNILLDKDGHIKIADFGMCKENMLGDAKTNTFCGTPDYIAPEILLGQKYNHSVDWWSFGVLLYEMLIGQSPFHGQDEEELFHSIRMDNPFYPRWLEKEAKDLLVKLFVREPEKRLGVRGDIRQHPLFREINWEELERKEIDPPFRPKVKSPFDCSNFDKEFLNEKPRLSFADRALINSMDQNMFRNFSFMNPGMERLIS

[28] = target: Ribosomal protein S6 kinase alpha-3 (Homo sapiens) (UniProt P51812); conditions: Compound concentration 1000.0 nM
[29] = target: Ribosomal protein S6 kinase alpha-6 (Homo sapiens) (UniProt Q9UK32); conditions: Compound concentration 1000.0 nM
Sequence of Ribosomal protein S6 kinase alpha-6 (Homo sapiens) (Q9UK32 whole entry): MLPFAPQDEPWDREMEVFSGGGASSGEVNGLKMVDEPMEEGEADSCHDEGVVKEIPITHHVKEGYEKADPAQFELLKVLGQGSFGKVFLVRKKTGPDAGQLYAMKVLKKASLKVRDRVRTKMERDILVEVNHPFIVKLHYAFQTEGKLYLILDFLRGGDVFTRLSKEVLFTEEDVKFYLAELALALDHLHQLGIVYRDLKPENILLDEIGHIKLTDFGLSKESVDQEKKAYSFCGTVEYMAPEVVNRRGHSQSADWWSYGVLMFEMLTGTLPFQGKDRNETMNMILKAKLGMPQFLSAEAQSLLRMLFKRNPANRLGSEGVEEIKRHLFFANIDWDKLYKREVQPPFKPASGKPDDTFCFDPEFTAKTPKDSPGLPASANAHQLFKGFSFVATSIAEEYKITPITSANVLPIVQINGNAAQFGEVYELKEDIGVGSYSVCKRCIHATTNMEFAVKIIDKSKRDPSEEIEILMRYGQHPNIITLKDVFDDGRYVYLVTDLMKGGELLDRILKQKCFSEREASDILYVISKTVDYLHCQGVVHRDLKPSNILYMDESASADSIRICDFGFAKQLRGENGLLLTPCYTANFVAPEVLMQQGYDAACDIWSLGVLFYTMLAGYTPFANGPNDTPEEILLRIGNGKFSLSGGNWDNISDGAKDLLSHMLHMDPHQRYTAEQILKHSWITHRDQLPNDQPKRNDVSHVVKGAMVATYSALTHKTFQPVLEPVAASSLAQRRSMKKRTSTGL

[30] = target: Serine/threonine-protein kinase SIK2 (Homo sapiens) (UniProt Q9H0K1); conditions: Compound concentration 1000.0 nM
[31] = target: STE20-like serine/threonine-protein kinase (Homo sapiens) (UniProt Q9H2G2); conditions: Compound concentration 1000.0 nM
Sequence of STE20-like serine/threonine-protein kinase (Homo sapiens) (Q9H2G2 whole entry, looked up): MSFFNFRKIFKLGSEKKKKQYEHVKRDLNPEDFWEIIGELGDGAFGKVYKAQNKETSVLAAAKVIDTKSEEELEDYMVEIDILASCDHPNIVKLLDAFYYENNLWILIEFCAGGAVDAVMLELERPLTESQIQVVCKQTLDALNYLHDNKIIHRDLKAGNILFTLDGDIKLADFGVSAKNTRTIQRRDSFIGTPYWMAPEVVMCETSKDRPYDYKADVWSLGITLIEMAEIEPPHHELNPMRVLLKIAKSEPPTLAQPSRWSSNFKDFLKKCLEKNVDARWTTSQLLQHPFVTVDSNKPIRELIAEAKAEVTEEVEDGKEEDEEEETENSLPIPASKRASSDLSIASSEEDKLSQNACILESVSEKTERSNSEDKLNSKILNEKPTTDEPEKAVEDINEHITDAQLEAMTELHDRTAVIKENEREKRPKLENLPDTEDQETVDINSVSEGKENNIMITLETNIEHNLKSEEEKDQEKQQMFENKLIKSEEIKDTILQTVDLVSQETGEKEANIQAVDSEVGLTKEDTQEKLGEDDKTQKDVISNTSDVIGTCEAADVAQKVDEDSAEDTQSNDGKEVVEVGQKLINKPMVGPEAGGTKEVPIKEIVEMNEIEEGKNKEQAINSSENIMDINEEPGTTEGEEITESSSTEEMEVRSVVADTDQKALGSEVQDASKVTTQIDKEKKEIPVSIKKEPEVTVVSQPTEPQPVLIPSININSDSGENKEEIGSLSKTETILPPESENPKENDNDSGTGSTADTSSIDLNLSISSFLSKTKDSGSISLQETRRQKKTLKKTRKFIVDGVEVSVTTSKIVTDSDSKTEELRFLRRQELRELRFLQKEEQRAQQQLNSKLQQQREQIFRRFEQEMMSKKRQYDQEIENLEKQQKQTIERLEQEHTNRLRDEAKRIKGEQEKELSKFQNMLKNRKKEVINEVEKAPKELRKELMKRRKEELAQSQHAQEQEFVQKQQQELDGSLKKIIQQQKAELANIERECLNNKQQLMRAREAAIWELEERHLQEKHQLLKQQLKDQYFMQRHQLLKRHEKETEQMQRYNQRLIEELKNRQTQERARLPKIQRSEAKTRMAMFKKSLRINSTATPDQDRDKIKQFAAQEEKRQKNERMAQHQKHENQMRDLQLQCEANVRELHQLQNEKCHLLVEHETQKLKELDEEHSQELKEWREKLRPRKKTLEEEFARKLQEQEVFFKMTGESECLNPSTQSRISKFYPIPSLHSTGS

[32] = target: Serine/threonine-protein kinase 16 (Homo sapiens) (UniProt O75716); conditions: Compound concentration 1000.0 nM
[33] = target: Tyrosine-protein kinase Tec (Homo sapiens) (UniProt P42680); conditions: Compound concentration 1000.0 nM
[34] = target: Dual specificity testis-specific protein kinase 1 (Homo sapiens) (UniProt Q15569); conditions: Compound concentration 1000.0 nM
[35] = target: TRAF2 and NCK-interacting protein kinase (Homo sapiens) (UniProt Q9UKE5); conditions: Compound concentration 1000.0 nM
[36] = target: Serine/threonine-protein kinase TNNI3K (Homo sapiens) (UniProt Q59H18); conditions: Compound concentration 1000.0 nM
[37] = target: 5-hydroxytryptamine receptor 5A (Homo sapiens) (UniProt P47898); conditions: Compound concentration 10.0 uM
[38] = target: T1, Muscarinic acetylcholine receptor M5 (Homo sapiens) (UniProt P08912); conditions: Compound concentration 10.0 uM
T1 sequence (whole entry): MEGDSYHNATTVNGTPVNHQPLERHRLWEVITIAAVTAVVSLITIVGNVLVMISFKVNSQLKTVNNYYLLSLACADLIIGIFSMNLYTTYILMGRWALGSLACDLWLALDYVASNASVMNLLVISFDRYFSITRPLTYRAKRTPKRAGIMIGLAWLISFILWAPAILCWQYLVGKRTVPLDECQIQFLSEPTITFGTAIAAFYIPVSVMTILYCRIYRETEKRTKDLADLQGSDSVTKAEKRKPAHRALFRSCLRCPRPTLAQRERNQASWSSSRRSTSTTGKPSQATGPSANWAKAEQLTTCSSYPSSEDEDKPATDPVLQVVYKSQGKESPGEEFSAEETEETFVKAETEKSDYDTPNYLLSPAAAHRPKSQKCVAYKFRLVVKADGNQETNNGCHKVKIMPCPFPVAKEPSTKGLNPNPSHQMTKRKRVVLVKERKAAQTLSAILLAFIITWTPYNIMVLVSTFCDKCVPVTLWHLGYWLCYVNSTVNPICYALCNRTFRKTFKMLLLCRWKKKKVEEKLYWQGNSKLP

Cn1cncc1[C@](O)(COc1ccc(C#N)cc1-c1ccc(OC(F)(F)F)cc1)c1ccc(C#N)cc1 [ABT-100]
inactive: residual activity [1] 100% | residual activity [2] 100% | residual activity [3] 87% | residual activity [4] 100% | residual activity [5] 81% | residual activity [6] 96% | residual activity [7] 100% | residual activity [8] 100% | residual activity [9] 100% | residual activity [10] 82% | residual activity [11] 93% | residual activity [12] 87% | residual activity [13] 100% | residual activity [14] 71% | residual activity [15] 100% | residual activity [16] 90% | residual activity [17] 85% | residual activity [18] 90% | residual activity [19] 83% | residual activity [20] 96% | residual activity [21] 87% | residual activity [22] 100% | residual activity [23] 98% | residual activity [24] 63% | residual activity [25] 77% | residual activity [26] 100% | residual activity [27] 79% | residual activity [28] 100% | residual activity [29] 93% | residual activity [30] 95% | residual activity [31] 90% | residual activity [32] 99% | residual activity [33] 93% | residual activity [34] 100% | residual activity [35] 81% | residual activity [36] 82% | inhibition [37] 1.81% | inhibition [38] -4.82%

Cn1cncc1[C@@](O)(COc1ccc(C#N)cc1-c1ccc(OC(F)(F)F)cc1)c1ccc(C#N)cc1 [A-108]
inactive: residual activity [1] 92% | residual activity [2] 95% | residual activity [3] 100% | residual activity [4] 100% | residual activity [5] 100% | residual activity [6] 85% | residual activity [7] 100% | residual activity [8] 100% | residual activity [9] 93% | residual activity [10] 100% | residual activity [11] 93% | residual activity [12] 100% | residual activity [13] 98% | residual activity [14] 100% | residual activity [15] 99% | residual activity [16] 80% | residual activity [17] 74% | residual activity [18] 100% | residual activity [19] 84% | residual activity [20] 87% | residual activity [21] 97% | residual activity [22] 100% | residual activity [23] 100% | residual activity [24] 95% | residual activity [25] 100% | residual activity [26] 100% | residual activity [27] 100% | residual activity [28] 98% | residual activity [29] 100% | residual activity [30] 100% | residual activity [31] 100% | residual activity [32] 99% | residual activity [33] 100% | residual activity [34] 92% | residual activity [35] 99% | residual activity [36] 100% | inhibition [37] 0.81% | inhibition [38] 1.23%
